Results taken from patent EP4417602A1, “SUBSTITUTED PYRAZOLE CARBOXAMIDES, SALTS THEREOF AND THEIR USE AS HERBICIDALLY ACTIVE SUBSTANCES” (Bayer AG, priority 2023, dated 2024).

Columns and labels:
ECHCG = assay: A. Herbicidal pre-emergence action on harmful plants (Tables A); assay type: in vivo, Echinochloa crus-galli; details: visual grading after ca. 3 weeks vs untreated controls, 100% = plants have died off, 0% = as control plants
Outline: (§1)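 Greenhouse pre-emergence test: compound applied to the soil surface at 1280 g/ha or below, and herbicidal effect rated visually at ca. 3 weeks on a 0–100% scale against untreated plants.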

SETVI = assay: as above; assay type: in vivo, Setaria viridis; details: visual grading after ca. 3 weeks vs untreated controls, 100% = plants have died off, 0% = as control plants
Outline: as §1

STEME = assay: as above; assay type: in vivo, Stellaria media; details: visual grading after ca. 3 weeks vs untreated controls, 100% = plants have died off, 0% = as control plants
Outline: as §1

POAAN = assay: B. Herbicidal post-emergence action on harmful plants (Tables B); assay type: in vivo, Poa annua
Outline: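 Activity was scored visually as % damage (100% = dead, 0% = like untreated) about 3 weeks after treatment. Plants at the one-leaf stage, 2-3 weeks old, were sprayed with WP/EC formulations plus 0.5% additive (600 L/ha water, up to 1280 g/ha). Plants were grown in sandy loam in a greenhouse.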

VIOTR = assay: C. Herbicidal pre-emergence action, weed and crop plants (Tables C); assay type: in vivo, Viola tricolor
Outline: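 Seeds were sown in sandy loam and covered with soil. WP or EC formulations were sprayed onto the soil surface as aqueous suspension or emulsion with 0.5% additive, at rates of 320 g/ha or below. Plants were kept in a greenhouse, and damage was scored visually after about 3 weeks as % effect versus untreated controls (100% = dead, 0% = like control).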

ZEAMX = assay: F. Post-emergence effects on crop plants (Tables F); assay type: in vivo, Zea mays; details: crop plant
Outline: (§2)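 Plants were grown in sandy loam in a greenhouse and sprayed post-emergence at the single-leaf stage, 2–3 weeks after sowing. Visual damage was scored after ca. 3 weeks against untreated controls (0% = as control, 100% = dead).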

GLXMA = assay: as above; assay type: in vivo, Glycine max; details: crop plant
Outline: as §2

BRSNW = assay: as above; assay type: in vivo, Brassica napus; details: crop plant
Outline: as §2

DIGSA = assay: A. Herbicidal pre-emergence action on harmful plants (Tables A); assay type: in vivo, Digitaria sanguinalis
Outline: as §1

TRZAS = assay: F. Post-emergence effects on crop plants (Tables F); assay type: in vivo, Triticum aestivum; details: crop plant
Outline: as §2

[1] = application rate 1280 g/ha, Table B7a
[2] = application rate 320 g/ha, Table C12a
[3] = application rate 320 g/ha, Table A12b
[4] = application rate 1280 g/ha, Table A12a
[5] = application rate 320 g/ha, Table B7b
[6] = application rate 80 g/ha, Table C12b

SMILES | pre-emergence activity against ECHCG (ECHCG; application rate 80 g/ha) [%] | pre-emergence activity against ECHCG (ECHCG; application rate 320 g/ha) [%] | pre-emergence activity against ECHCG (ECHCG; application rate 1280 g/ha) [%] | pre-emergence activity against SETVI (SETVI; application rate 320 g/ha) [%] | pre-emergence activity against SETVI (SETVI; application rate 1280 g/ha) [%] | pre-emergence activity against STEME (STEME; application rate 1280 g/ha) [%] | post-emergence activity against POAAN (POAAN; [1]) [%] | pre-emergence activity against VIOTR (VIOTR; [2]) [%] | post-emergence activity against ZEAMX in % (ZEAMX; application rate 80 g/ha) [%] | post-emergence activity against ZEAMX in % (ZEAMX; application rate 320 g/ha) [%] | post-emergence activity against GLXMA in % (GLXMA; application rate 80 g/ha) [%] | pre-emergence activity against STEME (STEME; application rate 320 g/ha) [%] | pre-emergence activity against DIGSA (DIGSA; [3]) [%] | pre-emergence activity against DIGSA (DIGSA; [4]) [%] | post-emergence activity against BRSNW in % (BRSNW; application rate 320 g/ha) [%] | pre-emergence activity against VIOTR (VIOTR; [6]) [%] | post-emergence activity against GLXMA in % (GLXMA; application rate 320 g/ha) [%] | post-emergence activity against TRZAS in % (TRZAS; application rate 80 g/ha) [%] | post-emergence activity against TRZAS in % (TRZAS; application rate 320 g/ha) [%] | other results
COCc1nn(C)cc1C(=O)N1CCCC1Cc1ccccc1F (racemic) [Example I-002] | 90 | 100 | 100 | 90 | 90 | 90 | 90 | 80 | 0 | 0 | 20 | – | – | – | – | – | – | – | – | post-emergence activity against BRSNW in % (BRSNW; application rate 80 g/ha): 10%
COCc1nn(C(=O)OC(C)(C)C)cc1C(=O)N1CCCC1Cc1ccccc1F (racemic) [Example I-040] | – | 90 | 100 | 90 | 90 | 90 | – | – | 0 | 0 | 0 | 90 | 90 | 100 | 0 | – | – | – | – | –
COCc1nn(C)cc1C(=O)N1CCCC1Cc1ccccc1F (single isomer, unassigned) [Example I-003] | 100 | 100 | 100 | 100 | 100 | 90 | 90 | 90 | – | – | – | 90 | 100 | 100 | 0 | 80 | 10 | – | – | pre-emergence activity against SETVI (SETVI; application rate 80 g/ha): 100%; pre-emergence activity against STEME (STEME; application rate 80 g/ha): 90%; pre-emergence activity against DIGSA (DIGSA; application rate 80 g/ha, Table A12c): 100%; post-emergence activity against POAAN (POAAN; application rate 80 g/ha, Table B7c): 90%; post-emergence activity against POAAN (POAAN; [5]): 90%
Cn1cc(C(=O)N2CCCC2Cc2ccc(F)cc2F)c(COc2ccccc2)n1 (racemic) [Example I-008] | – | – | 90 | – | 90 | 90 | 90 | 90 | 0 | 0 | – | – | 90 | 100 | 10 | – | 0 | 20 | 20 | –
CNC(=O)n1cc(C(=O)N2CCCC2Cc2ccccc2F)c(COC)n1 (racemic) [Example I-051] | 90 | 90 | 90 | 90 | 90 | 90 | 90 | 80 | 20 | – | – | 90 | 90 | 90 | 20 | 80 | 10 | – | – | –
COCc1nn2c(c1C(=O)N1CCCC1Cc1ccccc1F)CCC2 (racemic) [Example I-022] | – | 90 | 100 | 90 | 90 | – | 90 | 80 | 0 | 0 | – | – | 90 | 90 | 0 | – | 0 | 0 | 0 | –
COCc1c(C(=O)N2CCCC2Cc2ccccc2Cl)cnn1C (racemic) [Example I-170] | 90 | 90 | 90 | 90 | 90 | – | 90 | – | 0 | – | 10 | – | – | – | 0 | – | – | 20 | – | post-emergence activity against POAAN (POAAN; [5]): 90%
C=C(c1ccccc1F)C1CCCN1C(=O)c1cn(C)nc1COC (racemic) [Example I-023] | – | 90 | 100 | 90 | 90 | 90 | 90 | 80 | 0 | 20 | – | 90 | 90 | 90 | 0 | 80 | – | – | – | –
COCc1nn(C)cc1C(=O)N1CCCC1C(O)c1ccccc1F (single isomer, unassigned) [Example I-053] | – | 90 | 90 | 90 | 90 | 90 | – | – | 0 | – | – | 90 | 90 | 90 | 20 | – | 20 | 10 | 20 | –
Cn1cc(C(=O)N2CCCC2Cc2ccccc2F)c(COc2ccccc2)n1 (racemic) [Example I-006] | – | – | 90 | – | – | 90 | 90 | – | 10 | 20 | 0 | 90 | 90 | 100 | 10 | – | – | 20 | 20 | –
